Experimental findings from ChEMBL document CHEMBL1156572, “Synthesis, stereochemical identification, and selective inhibitory activity against human monoamine oxidase-B of 2-methylcyclohexylidene-(4-arylthiazol-2-yl)hydrazones” (J Med Chem, 2008) are described below.

In assay [1] the target is T1, Amine oxidase [flavin-containing] A (Homo sapiens, UniProt P21397).
T1 sequence (P21397 whole entry): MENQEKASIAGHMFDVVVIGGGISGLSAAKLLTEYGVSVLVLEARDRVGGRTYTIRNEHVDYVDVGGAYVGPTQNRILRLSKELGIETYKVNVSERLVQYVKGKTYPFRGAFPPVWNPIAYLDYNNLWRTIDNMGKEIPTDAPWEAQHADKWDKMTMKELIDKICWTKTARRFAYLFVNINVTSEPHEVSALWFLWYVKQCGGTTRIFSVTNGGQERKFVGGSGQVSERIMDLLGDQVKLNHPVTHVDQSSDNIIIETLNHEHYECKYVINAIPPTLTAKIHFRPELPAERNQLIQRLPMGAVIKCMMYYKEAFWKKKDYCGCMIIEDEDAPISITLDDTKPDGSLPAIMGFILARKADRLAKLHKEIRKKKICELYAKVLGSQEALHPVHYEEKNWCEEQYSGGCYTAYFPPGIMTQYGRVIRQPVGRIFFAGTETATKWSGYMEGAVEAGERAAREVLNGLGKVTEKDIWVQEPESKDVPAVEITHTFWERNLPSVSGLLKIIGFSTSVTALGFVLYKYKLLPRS
To be noted: read-out: INH.
Description: Inhibition of human recombinant MAOA after washing at 500 uM by centrifugation-ultrafiltration method

Assay [2] concerns the target T1, Amine oxidase [flavin-containing] A. The note with it: read-out: INH. The source holds these as a separate data set.
Description: Inhibition of human recombinant MAOA before repeated washing at 500 uM

Regarding `O=C(NCCN1CCOCC1)c1ccc(Cl)cc1` [MOCLOBEMIDE], the inhibition at 500 µM in assay [1] came to 10.3%; in assay [2] it was 86.8%.
